Earlier results, collected in US20240189234A1, “SILICON PARTICLES FOR DRUG DELIVERY” (NACAMED AS, priority 2021, published 2024).

Columns and labels:
[1] = oral
[2] = calculated log P values from Foye's Principles of Medicinal Chemistry

Row | SMILES | absolute bioavailability [1] | log P [2]
1 | CCOc1nc2cccc(C(=O)O)c2n1Cc1ccc(-c2ccccc2-c2nnn[nH]2)cc1 [candesartan] | 40% | 
2 | COc1ccc([C@@H]2Sc3ccccc3N(CCN(C)C)C(=O)[C@@H]2OC(C)=O)cc1 [diltiazem] | 40% | 4.73
3 | CC1(C)S[C@@H]2[C@H](NC(=O)COc3ccccc3)C(=O)N2[C@H]1C(=O)O [phenoxymethylpenicillin] | 50% | 

The remaining lines, values ahead:

Row | absolute bioavailability [1] | log P [2] | SMILES
4 | 60% | 3.25 | CCOC(=O)[C@H](CCc1ccccc1)N[C@@H](C)C(=O)N1CCC[C@H]1C(=O)O [enalapril]
5 | 26% |  | CC(C)NCC(O)COc1cccc2ccccc12 (centres unmarked) [propranolol]
6 | 25% |  | CCCCC(=O)N(Cc1ccc(-c2ccccc2-c2nnn[nH]2)cc1)[C@H](C(=O)O)C(C)C [valsartan]
